Positions count from the first letter of the chain named.
Experiments:
KcsA Y82C = conditions: reverse direction unchanged, ref Heginbotham et al., 1999; cited from earlier work
wt-Kcv = molecular target: T1, wt-Kcv (Paramecium bursaria Chlorella virus 1, UniProt Q84568); experiment: MTSET control, single-channel conductance of wt-Kcv; assay type: biochemical, chlorella virus PBCV-1; conditions: 0.2 mM cis MTSET
T1 sequence (Q84568 1-94): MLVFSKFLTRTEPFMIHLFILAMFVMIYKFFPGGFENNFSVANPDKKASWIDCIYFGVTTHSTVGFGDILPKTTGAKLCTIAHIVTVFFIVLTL

Kcv L70C = molecular target: T2, Kcv L70C (Paramecium bursaria Chlorella virus 1, UniProt Q84568, L70C); experiment: MTSET cysteine modification, single-channel conductance of L70C; assay type: biochemical, chlorella virus PBCV-1; conditions: for conductance reduced by: L70C, 0.2 mM cis MTSET for 5 min
T2 sequence (Q84568 1-94 L70C): T1 sequence (Q84568 1-94) with L70C

C[N+](C)(C)CCSS(C)(=O)=O [MTSET, (2-(trimethylammonium)ethyl) methanethiosulfonate]
reduction of cis to trans current (KcsA Y82C): 60% | conductance change (wt-Kcv): did not observe the conductance change | conductance reduced by (Kcv L70C; 60 mV): 30% | conductance reduced by (Kcv L70C; −60 mV): 78% | effect on conductance (Kcv L70C; MTSET added in the trans solution (not depicted)): not found to reduce the conductance
